From ChEMBL document CHEMBL1201861, “Genomics of Drug Sensitity in Cancer screening data, Wellcome Trust Sanger Institute”

Columns and labels:
Assay in all cases: cells
COLO-792 = assay type: functional, cell-based, Homo sapiens; details: Homo sapiens, COLO-792
Description: SANGER: Inhibition of human COLO-792 cell growth in a cell viability assay.

CTB-1 = assay type: functional, cell-based; details: Homo sapiens
Description: SANGER: Inhibition of human CTB-1 cell growth in a cell viability assay.

D-247MG = assay type: functional, cell-based, Homo sapiens; details: Homo sapiens, D-247MG
Description: SANGER: Inhibition of human D-247MG cell growth in a cell viability assay.

DBTRG-05MG = assay type: functional, cell-based, Homo sapiens; details: Homo sapiens, DBTRG-05MG;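 note: cell viability assay measuring growth inhibition of human DBTRG-05MG cells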
Description: SANGER: Inhibition of human DBTRG-05MG cell growth in a cell viability assay.

DJM-1 = assay type: functional, cell-based, Homo sapiens; details: Homo sapiens, DJM-1;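 note: growth inhibition of human DJM-1 cells, read out by a cell viability assay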
Description: SANGER: Inhibition of human DJM-1 cell growth in a cell viability assay.

Daoy = assay type: functional, cell-based, Homo sapiens; details: Homo sapiens, Daoy;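 note: daoy cell growth inhibition, read out as cell viability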
Description: SANGER: Inhibition of human Daoy cell growth in a cell viability assay.

EGI-1 = assay type: functional, cell-based, Homo sapiens; details: Homo sapiens, EGI-1;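 note: cell viability readout used to gauge growth inhibition of EGI-1 cells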
Description: SANGER: Inhibition of human EGI-1 cell growth in a cell viability assay.

ES5 = assay type: functional, cell-based, Homo sapiens; details: Homo sapiens, ES5;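 note: growth inhibition of human ES5 cells, read out by a cell viability assay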
Description: SANGER: Inhibition of human ES5 cell growth in a cell viability assay.

ETK-1 = assay type: functional, cell-based, Homo sapiens; details: Homo sapiens, ETK-1;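 note: growth inhibition of human ETK-1 cells, read out with a cell viability assay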
Description: SANGER: Inhibition of human ETK-1 cell growth in a cell viability assay.

G-402 = assay type: functional, cell-based, Homo sapiens; details: Homo sapiens, G-402
Description: SANGER: Inhibition of human G-402 cell growth in a cell viability assay.

GB-1 = assay type: functional, cell-based, Homo sapiens; details: Homo sapiens, GB-1;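 note: growth of GB-1 cells judged by a viability assay, IC50 marks the concentration inhibiting growth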
Description: SANGER: Inhibition of human GB-1 cell growth in a cell viability assay.

GCT = assay type: functional, cell-based, Homo sapiens; details: Homo sapiens, GCT;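 note: GCT cell line proliferation inhibition, read out with a cell viability assay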
Description: SANGER: Inhibition of human GCT cell growth in a cell viability assay.

GR-ST = assay type: functional, cell-based; details: Homo sapiens
Description: SANGER: Inhibition of human GR-ST cell growth in a cell viability assay.

HuTu80 = assay type: functional, cell-based, Homo sapiens, HUTU-80; details: Homo sapiens, HuTu80;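 note: growth inhibition of HuTu80 human cells, determined with a cell viability readout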
Description: SANGER: Inhibition of human HUTU-80 cell growth in a cell viability assay.

HuO-3N1 = assay type: functional, cell-based, Homo sapiens; details: Homo sapiens, HuO-3N1;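 note: cell viability readout used to measure how strongly compounds suppress proliferation of human HuO-3N1 cells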
Description: SANGER: Inhibition of human HuO-3N1 cell growth in a cell viability assay.

JAR = assay type: functional, cell-based, Homo sapiens; details: Homo sapiens, JAR;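 note: growth inhibition of human JAR cells determined with a cell viability assay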
Description: SANGER: Inhibition of human JAR cell growth in a cell viability assay.

KARPAS-45 = assay type: functional, cell-based; details: Homo sapiens;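 note: inhibition of cell line growth, read out through a viability assay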
Description: SANGER: Inhibition of human KARPAS-45 cell growth in a cell viability assay.

KG-1 = assay type: functional, cell-based; details: Homo sapiens;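 note: growth inhibition of KG-1 cells, read out by a cell viability assay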
Description: SANGER: Inhibition of human KG-1 cell growth in a cell viability assay.

KM-H2 = assay type: functional, cell-based; details: Homo sapiens;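 note: growth inhibition of KM-H2 cells, read out by a cell viability assay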
Description: SANGER: Inhibition of human KM-H2 cell growth in a cell viability assay.

KYSE-410 = assay type: functional, cell-based, Homo sapiens; details: Homo sapiens, KYSE-410;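 note: growth inhibition of KYSE-410 cells, measured through a cell viability readout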
Description: SANGER: Inhibition of human KYSE-410 cell growth in a cell viability assay.

LB831-BLC = assay type: functional, cell-based, Homo sapiens; details: Homo sapiens, LB831-BLC;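 note: growth inhibition of LB831-BLC cells, read out with a cell viability assay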
Description: SANGER: Inhibition of human LB831-BLC cell growth in a cell viability assay.

LC-2-ad = assay type: functional, cell-based, Homo sapiens; details: Homo sapiens, LC-2-ad;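 note: growth inhibition of human LC-2-ad cells, read out with a cell viability assay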
Description: SANGER: Inhibition of human LC-2-ad cell growth in a cell viability assay.

LN-405 = assay type: functional, cell-based, Homo sapiens; details: Homo sapiens, LN-405
Description: SANGER: Inhibition of human LN-405 cell growth in a cell viability assay.

LoVo = assay type: functional, cell-based; details: Homo sapiens;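 note: growth inhibition of human LoVo cells, read out with a cell viability assay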
Description: SANGER: Inhibition of human LoVo cell growth in a cell viability assay.

MC116 = assay type: functional, cell-based; details: Homo sapiens;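 note: growth inhibition of MC116 cells, read out with a cell viability assay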
Description: SANGER: Inhibition of human MC116 cell growth in a cell viability assay.

MOLT-16 = assay type: functional, cell-based; details: Homo sapiens;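 note: growth inhibition of human MOLT-16 cells, read out with a cell viability assay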
Description: SANGER: Inhibition of human MOLT-16 cell growth in a cell viability assay.

MSTO-211H = assay type: functional, cell-based, Homo sapiens; details: Homo sapiens, MSTO-211H
Description: SANGER: Inhibition of human MSTO-211H cell growth in a cell viability assay.

MV4-11 = assay type: functional, cell-based, MV-4-11; details: Homo sapiens;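 note: cell viability readout measuring growth inhibition of human MV-4-11 cells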
Description: SANGER: Inhibition of human MV-4-11 cell growth in a cell viability assay.

NB5 = assay type: functional, cell-based, Homo sapiens; details: Homo sapiens, NB5;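 note: growth inhibition of NB5 cells, read out as cell viability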
Description: SANGER: Inhibition of human NB5 cell growth in a cell viability assay.

NB7 = assay type: functional, cell-based; details: Homo sapiens;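 note: growth inhibition of NB7 cells, read out with a cell viability assay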
Description: SANGER: Inhibition of human NB7 cell growth in a cell viability assay.

NCI-H1092 = assay type: functional, cell-based; details: Homo sapiens;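 note: cell growth inhibition measured with a cell viability assay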
Description: SANGER: Inhibition of human NCI-H1092 cell growth in a cell viability assay.

NCI-H1650 = assay type: functional, cell-based, Homo sapiens; details: Homo sapiens, NCI-H1650;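 note: growth inhibition of human NCI-H1650 cells measured by a cell viability assay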
Description: SANGER: Inhibition of human NCI-H1650 cell growth in a cell viability assay.

NCI-H2342 = assay type: functional, cell-based; details: Homo sapiens;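 note: growth inhibition of the cancer cell line, determined with a cell viability assay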
Description: SANGER: Inhibition of human NCI-H2342 cell growth in a cell viability assay.

NCI-H526 = assay type: functional, cell-based; details: Homo sapiens;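 note: growth inhibition of the human NCI-H526 cell line, measured by a cell viability assay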
Description: SANGER: Inhibition of human NCI-H526 cell growth in a cell viability assay.

NOMO-1 = assay type: functional, cell-based; details: Homo sapiens;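 note: growth inhibition of human NOMO-1 cells measured by a cell viability assay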
Description: SANGER: Inhibition of human NOMO-1 cell growth in a cell viability assay.

OAW-28 = assay type: functional, cell-based, Homo sapiens; details: Homo sapiens, OAW-28;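 note: growth inhibition of OAW-28 cells, read out with a cell viability assay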
Description: SANGER: Inhibition of human OAW-28 cell growth in a cell viability assay.

RMG-I = assay type: functional, cell-based, Homo sapiens; details: Homo sapiens, RMG-I;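 note: growth inhibition of human RMG-I cells, read out with a cell viability assay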
Description: SANGER: Inhibition of human RMG-I cell growth in a cell viability assay.

RVH-421 = assay type: functional, cell-based, Homo sapiens; details: Homo sapiens, RVH-421
Description: SANGER: Inhibition of human RVH-421 cell growth in a cell viability assay.

SCC-15 = assay type: functional, cell-based, Homo sapiens; details: Homo sapiens, SCC-15;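 note: growth inhibition of SCC-15 cells, read out with a cell viability assay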
Description: SANGER: Inhibition of human SCC-15 cell growth in a cell viability assay.

SF-126 = assay type: functional, cell-based, Homo sapiens; details: Homo sapiens, SF-126;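 note: growth inhibition of human SF126 cells, read out with a cell viability assay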
Description: SANGER: Inhibition of human SF126 cell growth in a cell viability assay.

SK-MEL-24 = assay type: functional, cell-based; details: Homo sapiens;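 note: growth inhibition read out by a cell viability assay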
Description: SANGER: Inhibition of human SK-MEL-24 cell growth in a cell viability assay.

SW-620 = assay type: functional, cell-based, Homo sapiens; details: Homo sapiens, SW-620;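 note: growth inhibition of human SW-620 cells, measured by a cell viability assay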
Description: SANGER: Inhibition of human SW620 cell growth in a cell viability assay.

SW684 = assay type: functional, cell-based, Homo sapiens; details: Homo sapiens, SW684;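 note: growth inhibition of human SW684 cells, measured by a cell viability assay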
Description: SANGER: Inhibition of human SW684 cell growth in a cell viability assay.

SW 962 = assay type: functional, cell-based, Homo sapiens; details: Homo sapiens, SW 962;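 note: growth inhibition of human SW962 cells, read out by a cell viability assay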
Description: SANGER: Inhibition of human SW962 cell growth in a cell viability assay.

SiHa = assay type: functional, cell-based, Homo sapiens; details: Homo sapiens, SiHa;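 note: Viability-based readout of growth inhibition in SiHa cells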
Description: SANGER: Inhibition of human SiHa cell growth in a cell viability assay.

8305C = assay type: functional, cell-based, Homo sapiens; details: Homo sapiens, 8305C
Description: SANGER: Inhibition of human 8305C cell growth in a cell viability assay.

BB49-HNC = assay type: functional, cell-based, Homo sapiens; details: Homo sapiens, BB49-HNC;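 note: cell viability assay read-out, reported as inhibition of BB49-HNC cell growth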
Description: SANGER: Inhibition of human BB49-HNC cell growth in a cell viability assay.

BT-20 = assay type: functional, cell-based, Homo sapiens; details: Homo sapiens, BT-20;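 note: cell viability assay measuring suppression of growth in human BT-20 cells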
Description: SANGER: Inhibition of human BT-20 cell growth in a cell viability assay.

TE-6 = assay type: functional, cell-based, Homo sapiens; details: Homo sapiens, TE-6;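 note: growth inhibition of TE-6 cells, read out with a cell viability assay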
Description: SANGER: Inhibition of human TE-6 cell growth in a cell viability assay.

TGBC24TKB = assay type: functional, cell-based, Homo sapiens; details: Homo sapiens, TGBC24TKB;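 note: growth inhibition of human TGBC24TKB cells, read out with a cell viability assay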
Description: SANGER: Inhibition of human TGBC24TKB cell growth in a cell viability assay.

UACC-893 = assay type: functional, cell-based, Homo sapiens; details: Homo sapiens, UACC-893
Description: SANGER: Inhibition of human UACC-893 cell growth in a cell viability assay.

COLO-320-HSR = assay type: functional, cell-based; details: Homo sapiens;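 note: growth inhibition of COLO-320-HSR cells, determined with a cell viability assay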
Description: SANGER: Inhibition of human COLO-320-HSR cell growth in a cell viability assay.

KURAMOCHI = assay type: functional, cell-based; details: Homo sapiens;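 note: growth inhibition of KURAMOCHI cells, read out with a cell viability assay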
Description: SANGER: Inhibition of human KURAMOCHI cell growth in a cell viability assay.

Work on `Nc1ccn([C@@H]2O[C@H](CO)[C@@H](O)[C@@H]2O)c(=O)n1` [CYTARABINE] yielded an IC50 (COLO-792) of 1050 nM, an IC50 (CTB-1) of 34.4 nM and an IC50 (D-247MG) of 1090 nM. It also gave an IC50 (DBTRG-05MG) of over 2000 nM, an IC50 (DJM-1) of over 2000 nM and an IC50 (Daoy) of 532 nM. For the same compound, the IC50 (EGI-1) was 1110 nM, the IC50 (ES5) was 243 nM and the IC50 (ETK-1) was over 2000 nM. It also gave an IC50 (G-402) of 650 nM, an IC50 (GB-1) of over 2000 nM and an IC50 (GCT) of 856 nM. It also gave an IC50 (GR-ST) of 385 nM, an IC50 (HuTu80) of 561 nM and an IC50 (HuO-3N1) of 1330 nM. For the same compound, the IC50 (JAR) was 338 nM, the IC50 (KARPAS-45) was over 2000 nM and the IC50 (KG-1) was 1160 nM. The IC50 (KM-H2) was over 2000 nM, the IC50 (KYSE-410) was over 2000 nM and the IC50 (LB831-BLC) was over 2000 nM. The IC50 (LC-2-ad) was 230 nM, the IC50 (LN-405) was over 2000 nM and the IC50 (LoVo) was 671 nM. The IC50 (MC116) was 1280 nM, the IC50 (MOLT-16) was 36.1 nM and the IC50 (MSTO-211H) was 324 nM. It also gave an IC50 (MV4-11) of 1850 nM, an IC50 (NB5) of 452 nM and an IC50 (NB7) of 1520 nM. The IC50 (NCI-H1092) was over 2000 nM, the IC50 (NCI-H1650) was over 2000 nM and the IC50 (NCI-H2342) was over 2000 nM. It also gave an IC50 (NCI-H526) of over 2000 nM, an IC50 (NOMO-1) of over 2000 nM and an IC50 (OAW-28) of over 2000 nM. For the same compound, the IC50 (RMG-I) was over 2000 nM, the IC50 (RVH-421) was over 2000 nM and the IC50 (SCC-15) was 1080 nM. It also gave an IC50 (SF-126) of 693 nM, an IC50 (SK-MEL-24) of over 2000 nM and an IC50 (SW-620) of 349 nM. For the same compound, the IC50 (SW684) was over 2000 nM, the IC50 (SW 962) was over 2000 nM and the IC50 (SiHa) was 856 nM. It also gave an IC50 (8305C) of over 2000 nM, an IC50 (BB49-HNC) of over 2000 nM and an IC50 (BT-20) of over 2000 nM. It also gave an IC50 (TE-6) of over 2000 nM, an IC50 (TGBC24TKB) of 1850 nM and an IC50 (UACC-893) of over 2000 nM. The IC50 (COLO-320-HSR) was over 2000 nM.

`CN(Cc1cnc2nc(N)nc(N)c2n1)c1ccc(C(=O)N[C@@H](CCC(=O)O)C(=O)O)cc1` [METHOTREXATE] showed an IC50 (COLO-792) of over 200 nM, an IC50 (CTB-1) of 16.2 nM and an IC50 (D-247MG) of over 200 nM. It also gave an IC50 (DBTRG-05MG) of 171 nM, an IC50 (DJM-1) of over 200 nM and an IC50 (Daoy) of over 200 nM. The IC50 (EGI-1) was over 200 nM, the IC50 (ES5) was over 200 nM and the IC50 (ETK-1) was over 200 nM. The IC50 (G-402) was over 200 nM, the IC50 (GB-1) was over 200 nM and the IC50 (GCT) was over 200 nM. The IC50 (GR-ST) was 36.3 nM, the IC50 (HuO-3N1) was 89.1 nM and the IC50 (JAR) was 188 nM. It also gave an IC50 (KARPAS-45) of 124 nM, an IC50 (KG-1) of over 200 nM and an IC50 (KM-H2) of over 200 nM. It also gave an IC50 (KURAMOCHI) of over 200 nM, an IC50 (KYSE-410) of over 200 nM and an IC50 (LB831-BLC) of over 200 nM. The IC50 (LC-2-ad) was over 200 nM, the IC50 (LN-405) was over 200 nM and the IC50 (LoVo) was over 200 nM. The IC50 (MC116) was 60.6 nM, the IC50 (MOLT-16) was 11.6 nM and the IC50 (MSTO-211H) was over 200 nM. It also gave an IC50 (MV4-11) of 19.4 nM, an IC50 (NB5) of over 200 nM and an IC50 (NB7) of over 200 nM. For the same compound, the IC50 (NCI-H1092) was over 200 nM, the IC50 (NCI-H1650) was over 200 nM and the IC50 (NCI-H2342) was over 200 nM. It also gave an IC50 (NCI-H526) of 0.691 nM, an IC50 (NOMO-1) of 16.2 nM and an IC50 (OAW-28) of over 200 nM. It also gave an IC50 (RMG-I) of over 200 nM, an IC50 (RVH-421) of over 200 nM and an IC50 (SCC-15) of over 200 nM. For the same compound, the IC50 (SF-126) was over 200 nM, the IC50 (SK-MEL-24) was over 200 nM and the IC50 (SW-620) was over 200 nM. It also gave an IC50 (SW684) of over 200 nM, an IC50 (SW 962) of over 200 nM and an IC50 (SiHa) of over 200 nM. For the same compound, the IC50 (8305C) was 196 nM, the IC50 (BB49-HNC) was over 200 nM and the IC50 (BT-20) was over 200 nM. It also gave an IC50 (TE-6) of over 200 nM, an IC50 (TGBC24TKB) of over 200 nM and an IC50 (UACC-893) of over 200 nM. The IC50 (COLO-320-HSR) was 52.4 nM.
